# Data as given in US20240374631A1, “A COMPOSITION FOR IMPROVING GUT MICROBIOTA, BEHAVIOURAL PATTERN, ALPHA-SYNUCLEIN LEVELS, SLEEP PATTERN AND/OR SERUM MELATONIN” (GN Corporation Co Ltd, priority 2021, published 2024).
# Test system: gut microbiota
# Assay: Gut microbiome analysis (16S rRNA sequencing of fecal samples) in STAM model of NASH
# Assay type: in vivo, C57BL/6J mice
# Details: pre (baseline)
# From the text: The study is reported in accordance with Animal Research: Reporting of In Vivo Experiments (ARRIVE) guidelines. C57BL/6J mice were obtained from Japan SLC, Inc. (Japan). All animals used in this study were cared for under the following guidelines: Act on Welfare and Management of Animals (Ministry of the Environment, Japan, Act No. 105 of Oct. 1, 1973), standards relating to the care and management of laboratory animals and relief of pain (Notice No. 88 of the Ministry of the Environment, Japan, Apr. 28, 2006) and the guidelines for proper conduct of animal experiments (Science Council of Japan, Jun. 1, 2006). Protocol approvals were obtained from SMC Laboratories, Japan's IACUC (Study reference no: […] Mice were maintained in a specific pathogen-free (SPF) facility under controlled conditions of temperature (23±3° C.), humidity (50±20%), lighting (12-hour artificial light and dark cycles; light from 8:00 to 20:00) and air exchange. The STAM model of NASH was induced as previously described [D10]. Mice were given a single subcutaneous injection of 200 μg streptozotocin (STZ, Sigma-Aldrich, USA) solution 2 days after birth and fed with a high-fat diet (HFD, 57 kcal % fat, Cat #HFD32, CLEA Japan, Inc., Japan) from 4-9 weeks of age. All mice develop liver steatosis and diabetes and at […] mice had established steatohepatitis, histologically. Studygroups: There were five study groups, described below. Eight mice were included in each study group. Eight NASH mice were orally administered vehicle supplemented with AFO-202 Beta Glucan at a dose of 1 mg/kg in a volume of 5 mL/kg once daily from 6 to 9 weeks of age. Eight NASH mice were orally administered vehicle supplemented with Telmisartan at a dose of 10 mg/kg once daily from 6 to 9 weeks of age. Frequency: Fecal samples were collected at the 6 weeks of age (before administration) and 9 weeks of age (before sacrifice). Procedure: At 6 weeks of age, fecal samples were collected from each mouse by clean catch method. […] A sterile petri dish was placed on the bench. Gently massage the abdomen, position the bottom of mouse over a fresh petri dish, and collect 1-2 fecal pellets. At sacrifice, fecal samples were aseptically collected from cecum. The tubes with feces were placed on ice immediately. These tubes were snap frozen in liquid nitrogen and stored at -80° C. for shipping. In this analysis, the 16S rRNA sequence data acquired by the next-generation sequencer from the fecal […] was used to perform community analysis using the QIIME2 program for microbial community analysis. The raw read data in FASTQ format output from the next-generation sequencer was trimmed to remove adapter sequences and low QV regions that may be included in the data. Cutadapt was used to remove adapter sequences from DNA sequencing reads. Trimmomatic was used as read trimming tool for Illumina NGS data. The adapter sequence was trimmed using the adapter trimming program “cutadapt” if the Trimming of the region at the end of the read sequence overlapped the corresponding sequence by at least one base (mismatch tolerance: 20%). When reads containing N were present in at least one of Read1 and Read2, both Read1 and Read2 were removed. Trimming of low QV regions was performed on the read data after processing using the QV trimming program “Trimmomatic” under the following conditions. The window of 20 bases is slid from the 5' side, and the area where the average QV is less than 20 is trimmed. After trimming, only the reads with more than 50 bases remaining in both Read1 and Read2 were taken as output. The microbial community analysis based on 16S rRNA sequence was performed on the sequence data trimmed in the previous section using the microbial community analysis program “QIIME2”. The annotation program “sklearn” included in QIIME2 is used to annotate the ASV (OTU) sequences. […]
smiles,measurement,setting,value
CCCc1nc2c(C)cc(-c3nc4ccccc4n3C)cc2n1Cc1ccc(-c2ccccc2C(=O)O)cc1 [Telmisartan],"Abundance: S24-7, —, —",line r302,47
same,"Abundance: —, —, —",line r303,0
same,"Abundance: Ruminococcaceae, Oscillospira, —",line r304,35
same,"Abundance: Bacteroidaceae, Bacteroides, acidifaciens",line r305,0
same,"Abundance: Bacteroidaceae, Bacteroides, acidifaciens",line r306,0
same,"Abundance: Lachnospiraceae, Dorea, —",line r307,25
same,"Abundance: Ruminococcaceae, Other, Other",line r308,10
same,"Abundance: Lachnospiraceae, —, —",line r309,7
same,"Abundance: Lachnospiraceae, —, —",line r310,20
same,"Abundance: S24-7, —, —",line r311,1
same,"Abundance: Lachnospiraceae, Other, Other",line r312,14
same,"Abundance: —, —, —",line r313,0
same,"Abundance: Ruminococcaceae, Oscillospira, —",line r314,0
same,"Abundance: Ruminococcaceae, Oscillospira, —",line r315,42
same,"Abundance: Lachnospiraceae, —, —",line r316,14
same,"Abundance: Erysipelotrichaceae, —, —",line r317,0
same,"Abundance: Lachnospiraceae, —, —",line r319,13
same,"Abundance: Ruminococcaceae, Oscillospira, —",line r320,0
same,"Abundance: Lachnospiraceae, —, —",line r321,22
same,"Abundance: Other, Other, Other",line r322,49
same,"Abundance: F16, —, —",line r323,0
same,"Abundance: Christensenellaceae, —, —",line r324,19
same,"Abundance: Lachnospiraceae, Other, Other",line r325,0
same,"Abundance: Ruminococcaceae, Oscillospira, —",line r326,12
same,"Abundance: —, —, —",line r327,80
same,"Abundance: Ruminococcaceae, Other, Other",line r328,14
same,"Abundance: —, —, —",line r329,0
same,"Abundance: Lachnospiraceae, Other, Other",line r330,0
same,"Abundance: Other, Other, Other",line r331,0
same,"Abundance: Enterococcaceae, Vagococcus, —",line r332,0
same,"Abundance: Ruminococcaceae, Ruminococcus, —",line r333,23
same,"Abundance: Erysipelotrichaceae, Coprabacillus, —",line r334,11
same,"Abundance: Other, Other, Other",line r335,0
same,"Abundance: Ruminococcaceae, Oscillospira, —",line r336,11
same,"Abundance: Ruminococcaceae, Oscillospira, —",line r337,0
same,"Abundance: —, —, —",line r338,0
same,"Abundance: Lachnospiraceae, —, —",line r339,0
same,"Abundance: Ruminococcaceae, Oscillospira, —",line r340,0
same,"Abundance: Lachnospiraceae, Coprococcus, —",line r341,0
same,"Abundance: Ruminococcaceae, Other, Other",line r342,8
same,"Abundance: —, —, —",line r343,0
same,"Abundance: Erysipelotrichaceae, —, —",line r344,6
same,"Abundance: Rikenellaceae, —, —",line r345,0
same,"Abundance: —, —, —",line r346,0
same,"Abundance: —, —, —",line r347,0
same,"Abundance: —, —, —",line r348,8
same,"Abundance: Lachnospiraceae, —, —",line r349,0
same,"Abundance: —, —, —",line r350,15
same,"Abundance: Lachnospiraceae, Clostridium, Other",line r351,0
same,"Abundance: Erysipelotrichaceae, —, —",line r352,9
same,"Abundance: Streptococcaceae, Streptococcus, minor",line r353,9
same,"Abundance: Ruminococcaceae, Oscillospira, —",line r354,0
same,"Abundance: —, —, —",line r355,27
same,"Abundance: Lachnospiraceae, Other, Other",line r356,7
same,"Abundance: Other, Other, Other",line r357,36
same,"Abundance: —, —, —",line r358,0
same,"Abundance: —, —, —",line r359,0
same,"Abundance: —, —, —",line r360,0
same,"Abundance: Lachnospiraceae, —, —",line r362,7
same,"Abundance: Streptococcaceae, Streptococcus, —",line r363,0
same,"Abundance: S24-7, —, —",line r365,0
same,"Abundance: Other, Other, Other",line r367,0
same,"Abundance: [Mogibacteriaceae], —, —",line r368,0
same,"Abundance: Enterobacteriaceae, Enterobacter, Other",line r369,0
same,"Abundance: Erysipelotrichaceae, —, —",line r371,0
same,"Abundance: Aerococcaceae, Aerococcus, —",line r372,0
same,"Abundance: Ruminococcaceae, Oscillospira, —",line r373,0
same,"Abundance: Ruminococcaceae, Oscillospira, —",line r374,0
same,"Abundance: Other, Other, Other",line r375,5
same,"Abundance: Lachnospiraceae, Coprococcus, —",line r377,0
same,"Abundance: Other, Other, Other",line r378,35
same,"Abundance: Family Lachnospiraceae, Genus Other, Species Other",table row r380,11
same,"Abundance: Family Ruminococcaceae, Genus Oscillospira, Species —",table row r381,0
same,"Abundance: Family S24-7, Genus —, Species —",table row r382,0
same,"Abundance: Family Ruminococcaceae, Genus Ruminococcus, Species —",table row r383,0
same,"Abundance: Family Ruminococcaceae, Genus Oscillospira, Species —",table row r384,31
same,"Abundance: Family Ruminococcaceae, Genus Ruminococcus, Species —",table row r389,0
same,"Abundance: Family Lachnospiraceae, Genus —, Species —",table row r390,0
same,"Abundance: Family Ruminococcaceae, Genus Oscillospira, Species —",table row r391,0
same,"Abundance: Family Corynebacteriaceae, Genus Corynebacterium, Species stationis",table row r394,0
same,"Abundance: Family Ruminococcaceae, Genus Other, Species Other",table row r395,5
same,"Abundance: Family S24-7, Genus —, Species —",table row r396,0
same,"Abundance: Family Ruminococcaceae, Genus Oscillospira, Species —",table row r397,0
same,"Abundance: Family Ruminococcaceae, Genus Oscillospira, Species —",table row r398,0
same,"Abundance: Family Ruminococcaceae, Genus Ruminococcus, Species —",table row r399,0
same,"Abundance: Family [Mogibacteriaceae], Genus —, Species —",table row r400,0
same,"Abundance: Family Erysipelotrichaceae, Genus Coprobacillus, Species —",table row r401,0
same,"Abundance: Family Erysipelotrichaceae, Genus Clostridium, Species cocleatum",table row r402,0
same,"Abundance: Family S24-7, Genus —, Species —",table row r403,0
same,"Abundance: Family Coriobacteriaceae, Genus —, Species —",table row r404,0
same,"Abundance: Family Coriobacteriaceae, Genus Adlercreutzia, Species —",table row r405,0
same,"Abundance: Family Enterococcaceae, Genus Vagococcus, Species —",table row r407,0
same,"Abundance: Family [Mogibacteriaceae], Genus —, Species —",table row r409,0
same,"Abundance: Family S24-7, Genus —, Species —",table row r413,0
same,"Abundance: Family Ruminococcaceae, Genus Oscillospira, Species —",table row r414,0
same,"Abundance: Family Planococcaceae, Genus Sporosarcina, Species —",table row r415,0
same,"Abundance: Family Erysipelotrichaceae, Genus Other, Species Other",table row r417,7
same,"Abundance: Family Ruminococcaceae, Genus Ruminococcus, Species —",table row r419,0
same,"Abundance: Family Coriobacteriaceae, Genus Adlercreutzia, Species —",table row r423,0
same,"Abundance: Family Other, Genus Other, Species Other",table row r424,0
same,"Abundance: Family Ruminococcaceae, Genus Other, Species Other",table row r425,0
same,"Abundance: Family Erysipelotrichaceae, Genus —, Species —",table row r426,0
same,"Abundance: Family Deferribacteraceae, Genus Mucispirillum, Species schaedleri",table row r427,0
same,"Abundance: Family Methylobacteriaceae, Genus Methylobacterium, Species Other",table row r428,0
